# Assay results taken from PubChem BioAssay (NCI).
# Several values for one entry are separate records, joined by “and”; a condition that tells them apart may be missing. Equal entries are not always repeated.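 Values below derive from 48-hour exposures of cells grown in 96-well plates, with endpoints linearly interpolated between the two concentrations bracketing the appropriate inhibition level. GI50 = concentration required for 50% inhibition of growth. At the TGI there is no net growth.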
# How the values were obtained:
# Experiment in all cases: inhibition of tumour cell growth, NCI panel, 48 h
# IGROV1 ovarian = tested on: IGROV1 ovarian
# K-562 leukemia = tested on: K-562 leukemia
# NCI-H226 lung = tested on: NCI-H226 lung
# NCI/ADR-RES ovarian = tested on: NCI/ADR-RES ovarian
# PC-3 prostate = tested on: PC-3 prostate
# SF-268 CNS = tested on: SF-268 CNS
# SF-539 CNS = tested on: SF-539 CNS
# SK-OV-3 ovarian = tested on: SK-OV-3 ovarian
# SW-620 colon = tested on: SW-620 colon
# UO-31 renal = tested on: UO-31 renal
Compound,GI50 (IGROV1 ovarian),TGI (IGROV1 ovarian) [µM],GI50 (K-562 leukemia),TGI (K-562 leukemia) [µM],GI50 (NCI-H226 lung),TGI (NCI-H226 lung) [µM],GI50 (NCI/ADR-RES ovarian),TGI (NCI/ADR-RES ovarian) [µM],GI50 (PC-3 prostate),TGI (PC-3 prostate) [µM],GI50 (SF-268 CNS),TGI (SF-268 CNS) [µM],GI50 (SF-539 CNS),TGI (SF-539 CNS) [µM],GI50 (SK-OV-3 ovarian),TGI (SK-OV-3 ovarian) [µM],GI50 (SW-620 colon),TGI (SW-620 colon) [µM],TGI (UO-31 renal) [µM],GI50 (UO-31 renal)
Nc1ccccc1C#C/C=C\C#Cc1cccc(O)c1,0.646 µM,12.3,3.81 µM,30.6,6.03 µM,20.9,2.39 µM,10.3,6.5 µM,42.7,7.93 µM,44.5,2.5 µM,11.5,3.03 µM,19.8,3.12 µM,15.2,13.9,
NC(=O)c1ccc(-c2nc(-c3ccc4c(c3)OCO4)c(-c3ccccn3)[nH]2)cc1,> 25 µM and 34.2 µM,> 100,> 25 µM and 37.2 µM,> 100,> 25 µM and 22.2 µM,> 63.1,> 25 µM and 32.3 µM,> 100,> 25 µM and 43.2 µM,> 100,> 25 µM and 50.7 µM,> 100,> 25 µM and 49 µM,> 100,> 25 µM and 39.5 µM,> 100,> 25 µM and 65.6 µM,> 100,> 100,> 25 µM and 32.3 µM
OCCn1cnc2c(SCc3ccccc3)ncnc21,,> 100,,> 100,,> 100,,> 100,,> 100,,> 100,,> 100,,> 100,,> 100,> 100,
Nc1c(C(=O)c2cccc(-c3cccnc3)c2)cnn1-c1ccc(F)cc1F,2.06 µM,> 25,0.962 µM,24.5,6.96 µM,> 25,1.2 µM,> 21.9,5.12 µM,> 25,10.8 µM,> 25,8.32 µM,> 25,7.21 µM,> 25,1.27 µM,> 25,> 25,5.56 µM
COC(=N)c1c(N)[n+]([O-])c2ccc(F)cc2[n+]1[O-],18.1 µM,86.5,> 100 µM,> 100,> 100 µM,> 100,> 100 µM,> 100,> 100 µM,> 100,> 100 µM,> 100,> 100 µM,> 100,> 100 µM,> 100,> 100 µM,> 100,> 100,> 100 µM
Cc1ccc(-c2nc3nc(-c4ccccc4)nc(N4CCNCC4)c3o2)cc1,0.577 µM,1.41,0.235 µM,0.521,1.79 µM,3.79,0.776 µM,2.21,0.947 µM,2.46,1.75 µM,4.02,0.703 µM,1.85,1.9 µM,3.42,0.23 µM,0.54,1.01,0.513 µM
Cn1cccc1-c1cc(-c2ccc(Br)cc2)[nH]c(=O)c1C#N,77.2 µM,> 100,> 100 µM,> 100,> 100 µM,> 100,> 100 µM,> 100,> 100 µM,> 100,> 100 µM,> 100,89.3 µM,> 100,> 100 µM,> 100,> 100 µM,> 100,> 100,69.1 µM
COC(=O)Nc1nc2ccc(Oc3cccc(NC(=O)Nc4cc(C(F)(F)F)ccc4F)c3)cc2[nH]1,12.1 µM,> 25,0.452 µM,> 25,> 15.3 µM,> 25,24.8 µM,> 25,14.3 µM,> 25,18.5 µM,> 25,> 21.6 µM,> 25,10.2 µM,> 25,10.3 µM,> 25,> 25,14.3 µM
Nc1c(C(=O)c2cccc(C#CCO)c2)cnn1-c1ccc(F)cc1,> 25 µM,> 25,> 25 µM,> 25,> 25 µM,> 25,> 25 µM,> 25,> 25 µM,> 25,> 25 µM,> 25,> 25 µM,> 25,> 25 µM,> 25,> 25 µM,> 25,> 25,> 25 µM
COC(=O)c1cc2ccccc2c2c3c(ccc12)OCO3,90.7 µM,> 1000,658 µM,> 1000,26.4 µM,146,54.4 µM,> 1000,67.4 µM,> 1000,50.6 µM,371,44.4 µM,394,45.8 µM,357,900 µM,> 1000,> 1000,224 µM
Cc1cnc(CNC(=O)c2c(=O)c3ccc(N4CCCN(C)CC4)nc3n3c2sc2ccccc23)cn1,1.89 µM,22.2,1.82 µM,10.6,7.44 µM,30.8,1.18 µM,30.6,4.04 µM,9.7,1.55 µM,25.6,3.76 µM,8.51,12.5 µM,28.9,0.237 µM,3.9,21.3,3.03 µM
CCN1C(=O)N(CC)C2C1NN=c1s/c(=C\c3ccccn3)c(=O)n12 (centres undefined),2.02 µM,> 100,0.446 µM,> 100,3.07 µM,> 100,0.977 µM,> 100,1.79 µM,> 100,88.5 µM,> 100,1.74 µM,7.9,3.92 µM,> 100,0.743 µM,> 100,> 100,2.51 µM
